The logP is the decadic logarithm of the partition coefficient of the neutral form, usually between octanol and water. Read a high logP as higher lipophilicity.

The data set is described as follows: from Langlois, M.; Dubost, J.; Audry, E.; Dallet, P.; Colleter, J. (1989). Simultaneous determination of physicochemical constants usable in QSAR in a series of alpha-adrenergic amines. Analusis : chimie ….
`Fc1ccccc1C1NCCc2c1[nH]c1ccccc21` (centres undefined): the logP was found to be 3.16.
The same measure for `O=[N+]([O-])c1cccc(C2NCCc3c2[nH]c2ccccc32)c1` (centres undefined): 3.04; for `Clc1cccc(Cl)c1C1NCCc2c1[nH]c1ccccc21` (centres undefined): 3.34; for `c1ccc2c3c([nH]c2c1)C(c1ccc2c(c1)OCO2)NCC3` (centres undefined): 3.69.
`Clc1ccc(C2NCCc3c2[nH]c2ccccc32)c(Cl)c1` (centres undefined) came in with a logP of 3.58.
The same measure for `Clc1ccc(C2NCCc3c2[nH]c2ccccc32)cc1Cl` (centres undefined): 3.38; for `O=[N+]([O-])c1ccc(Cl)c(C2NCCc3c2[nH]c2ccccc32)c1` (centres undefined): 3.33; for `c1ccc(C(CC2NCCc3c2[nH]c2ccccc32)c2ccccc2)cc1` (centres undefined): 3.47.
The same measure for `Clc1cccc(C2NCCc3c2[nH]c2ccccc32)c1` (centres undefined): 3.47.
